{"source": "patent US20220331333A1", "about": "“RHOA PATHWAY INHIBITOR IN THE TREATMENT OF NEURODEVELOPMENTAL DISORDER OR NEUROPSYCHIATRIC DISORDER” (UNIVERSITE DE STRASBOURG, priority 2021, published 2022)", "key": {"Kctd13^+/− mouse model [1]": {"system": "Kctd13^+/− mouse model", "experiment": "Open field test after chronic fasudil treatment, Kctd13+/− line", "format": "in vivo", "conditions": "Kctd13+/− and wt littermates, 100 mg/kg/day orally in drinking water, 4 weeks", "experimental": "(§1) In this study, the inventors developed a protocol for a pre-clinical treatment (FIG. 1) with the drug fasudil hydrochloride or HA1077 ([…], LC laboratories Boston, Mass., USA). […] Animal bedding was changed once a week. At 11 weeks, animals were transferred from the animal facility to the phenotyping area. The temperature was kept at 21±2° C., and the light cycle was controlled as 12 h light and 12 h dark. At 12 weeks of age, three independent cohorts of mice for each line, with wild-type (wt) and mutant littermates, were subjected to a battery of behavioral tests (see below) for 2 weeks. […] The dose was estimated to 152.7 mg in feeding bottle (250 ml) changed twice a week considering the previous study in which the drinking volume was evaluated to about 4.6 ml/day/mouse. […] During each session the exploration activity was analyzed by measuring the total distance travelled, evaluated the adaptation of the mice to the environment over time, by splitting the data in intervals of 10 minutes and assessed the vertical activity through the number of rears. […] The exploration time of both objects A was recorded. […] The exploration time of the two objects (familiar object and novel object) was recorded. […] Data from behavioral characterization of Kctd13^+/- and 16p11.2 Del/+ mouse models were analyzed through the Student t-test (see supplementary table 1 and table 2 as a summary). […]"}, "RHOA [2]": {"system": "RHOA", "experiment": "Western blot of RHOA in hippocampal lysates, 16p11.2 Del/+ line", "format": "in vivo, mouse", "conditions": "fasudil for 6 weeks, 18-week-old mice", "experimental": "(§2) At 12 weeks of age, three independent cohorts of mice for each line, with wild-type (wt) and mutant littermates, were subjected to a battery of behavioral tests (see below) for 2 weeks. Then, 14 weeks old mice were randomly divided into 2 groups: one treated with fasudil administrated orally ad libitum in drinking water to reach a dose of 100 mg/kg/day and a second with no treatment. The dose was estimated to 152.7 mg in feeding bottle (250 ml) changed twice a week considering the previous study in which the drinking volume was evaluated to about 4.6 ml/day/mouse. […]\n(§3) Fresh hippocampal tissues were isolated by rapid decapitation/dissection of naive mice and snap frozen. […] Protein concentration was determined by Pierce™ BCA Protein Assay Kit (23225, Thermo Fisher Scientific, Strasbourg). […] Total levels of RHOA protein and Myosin Light Chain phosphorylation by Myosin Light Chain Kinase via RHOA pathway were analyzed using Western Blot. […] Signals were quantified using ImageJ and analyzed using Microsoft Excel and GraphPad Prism. […] The ratio of protein level or phosphorylation level against control β-actin protein level (detected with a mouse monoclonal Anti-βActin-Peroxidase antibody (A3854 Sigma)) was normalized to untreated wt sample mean. […]"}, "[3]": {"system": "phosphorylated form of MLC (P-MLC)", "experiment": "Western blot of phosphorylated MLC in hippocampal lysates, Kctd13+/− line", "format": "in vivo, mouse", "conditions": "Kctd13+/− mutant mice, fasudil for 6 weeks, 18-week-old mice", "experimental": "as §2, §3"}, "Kctd13^+/− mouse model [4]": {"system": "Kctd13^+/− mouse model", "experiment": "Novel object recognition (NOR) test after chronic fasudil treatment, Kctd13+/− line", "format": "in vivo", "conditions": "Kctd13+/− mice, 100 mg/kg/day orally in drinking water, tested at 19 weeks, 3 h retention delay", "experimental": "as §1"}, "[5]": {"system": "16p11.2 Del/+ mouse model", "experiment": "Novel object recognition (NOR) test after chronic fasudil treatment, 16p11.2 Del/+ line", "format": "in vivo", "conditions": "16p11.2 Del/+ mice, 100 mg/kg/day orally in drinking water, tested at 19 weeks, 3 h retention delay", "experimental": "as §1"}, "RHOA [6]": {"system": "RHOA", "experiment": "Western blot of RHOA in hippocampal lysates, Kctd13+/− line", "format": "in vivo, mouse", "conditions": "fasudil for 6 weeks, 18-week-old mice", "experimental": "as §2, §3"}, "[7]": {"system": "phosphorylated form of MLC (P-MLC)", "experiment": "Western blot of phosphorylated MLC in hippocampal lysates, 16p11.2 Del/+ line", "format": "in vivo, mouse", "conditions": "fasudil for 6 weeks, 18-week-old mice", "experimental": "as §2, §3"}, "[8]": {"system": "16p11.2 Del/+ mouse model", "experiment": "Open field test after chronic fasudil treatment, 16p11.2 Del/+ line", "format": "in vivo", "conditions": "16p11.2 Del/+ and wt littermates, 100 mg/kg/day orally in drinking water, 4 weeks", "experimental": "as §1"}}}
{"smiles": "O=S(=O)(c1cccc2cnccc12)N1CCCNCC1", "note": "[fasudil, hexahydro-1-(5-isoquinolinesulfonyl)-1H-1,4-diazepine]", "values": [{"measurement": "vertical activity (number of rears) in open field", "setting": "Kctd13^+/− mouse model [1]", "result": "did not have effect on any genotype for the vertical activity"}, {"measurement": "locomotor exploration activity (total distance travelled) in open field", "setting": "Kctd13^+/− mouse model [1]; treated vs non-treated", "result": "did not change the locomotor exploration activity"}, {"measurement": "RHOA protein levels in hippocampus", "setting": "RHOA [2]", "result": "did not cause changes in RHOA protein levels"}, {"measurement": "MLC phosphorylation levels in hippocampus", "setting": "[3]", "result": "reduced MLC phosphorylation levels"}, {"measurement": "novel object recognition (recognition index vs 50% chance level)", "setting": "Kctd13^+/− mouse model [4]", "result": "significantly improved the NOR defect"}, {"measurement": "novel object recognition (recognition index vs 50% chance level)", "setting": "[5]", "result": "significantly improved the NOR defect"}, {"measurement": "RHOA protein levels in hippocampus", "setting": "RHOA [6]", "result": "did not cause changes in RHOA protein levels"}, {"measurement": "MLC phosphorylation levels in hippocampus", "setting": "[7]; 16p11.2 Del/+ mutant mice", "result": "restored a normal MLC phosphorylation"}, {"measurement": "MLC phosphorylation levels in hippocampus", "setting": "[7]; wt littermates of the 16p11.2 Del/+ line", "result": "induced increased MLC phosphorylation in wt mice"}, {"measurement": "vertical activity (number of rears) in open field", "setting": "[8]", "result": "did not have effect on any genotype for the vertical activity"}, {"measurement": "locomotor exploration activity (total distance travelled) in open field", "setting": "[8]; treated vs non-treated", "result": "did not change the locomotor exploration activity"}]}
